Experimental data reported in the kinase profiling compilation of Christmann-Franck et al. (2016).
One block for each molecule: values may come before it.

Key:
JAK2 JH1 JH2 (human) = JAK2 JH1 JH2 (human) (UniProt O60674); experiment: Caliper, Mobility shift assay off-chip
EPHA6 (human) = EPHA6 (human) (UniProt Q9UF33); experiment: Caliper, Mobility shift assay off-chip
KIT (human) = KIT (human) (UniProt P10721); experiment: Caliper, Mobility shift assay off-chip
CDC7 (human) = CDC7 (human) (UniProt O00311); experiment: Caliper, Mobility shift assay off-chip
Chain of CDC7 (human) (O00311 whole entry, looked up): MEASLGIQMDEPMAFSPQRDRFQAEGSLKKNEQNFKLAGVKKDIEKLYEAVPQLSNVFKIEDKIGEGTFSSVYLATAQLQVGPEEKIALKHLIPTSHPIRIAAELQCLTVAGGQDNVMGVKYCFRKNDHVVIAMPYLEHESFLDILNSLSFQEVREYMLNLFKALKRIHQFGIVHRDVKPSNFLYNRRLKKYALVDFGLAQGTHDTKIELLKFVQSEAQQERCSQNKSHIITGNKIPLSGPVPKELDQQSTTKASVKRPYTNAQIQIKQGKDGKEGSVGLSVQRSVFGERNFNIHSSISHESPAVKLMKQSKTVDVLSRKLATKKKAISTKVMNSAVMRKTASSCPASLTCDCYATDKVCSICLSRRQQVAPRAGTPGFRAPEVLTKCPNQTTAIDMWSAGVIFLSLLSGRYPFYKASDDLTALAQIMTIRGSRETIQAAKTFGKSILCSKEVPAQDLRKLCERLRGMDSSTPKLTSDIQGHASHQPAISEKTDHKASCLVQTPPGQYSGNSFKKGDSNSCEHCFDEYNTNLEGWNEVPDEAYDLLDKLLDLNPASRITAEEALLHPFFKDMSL

RPS6KB2 (human) = RPS6KB2 (human) (UniProt Q9UBS0); experiment: Caliper, Mobility shift assay off-chip
CAMK2D (human) = CAMK2D (human) (UniProt Q13557); experiment: Caliper, Mobility shift assay off-chip
PIM2 (human) = PIM2 (human) (UniProt Q9P1W9); experiment: Caliper, Mobility shift assay off-chip
JAK3 JH1 JH2 (human) = JAK3 JH1 JH2 (human) (UniProt P52333); experiment: Caliper, Mobility shift assay off-chip
CAMK1 (human) = CAMK1 (human) (UniProt Q14012); experiment: Caliper, Mobility shift assay off-chip
Chain of CAMK1 (human) (Q14012 whole entry, looked up): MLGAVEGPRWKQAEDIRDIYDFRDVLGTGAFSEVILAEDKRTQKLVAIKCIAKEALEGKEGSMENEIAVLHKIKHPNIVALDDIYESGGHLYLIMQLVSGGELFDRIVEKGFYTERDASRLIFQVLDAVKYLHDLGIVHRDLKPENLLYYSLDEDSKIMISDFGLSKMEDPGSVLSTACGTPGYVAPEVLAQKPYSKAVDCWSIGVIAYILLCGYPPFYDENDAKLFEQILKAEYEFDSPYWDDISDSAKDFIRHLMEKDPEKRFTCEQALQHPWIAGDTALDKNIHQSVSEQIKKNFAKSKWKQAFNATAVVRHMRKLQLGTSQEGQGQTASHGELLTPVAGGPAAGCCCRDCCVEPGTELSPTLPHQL

MAP3K2 (human) = MAP3K2 (human) (UniProt Q9Y2U5); experiment: ELISA
RAF1 (human) = RAF1 (human) (UniProt P04049); experiment: ELISA
Chain of RAF1 (human) (P04049 whole entry, looked up): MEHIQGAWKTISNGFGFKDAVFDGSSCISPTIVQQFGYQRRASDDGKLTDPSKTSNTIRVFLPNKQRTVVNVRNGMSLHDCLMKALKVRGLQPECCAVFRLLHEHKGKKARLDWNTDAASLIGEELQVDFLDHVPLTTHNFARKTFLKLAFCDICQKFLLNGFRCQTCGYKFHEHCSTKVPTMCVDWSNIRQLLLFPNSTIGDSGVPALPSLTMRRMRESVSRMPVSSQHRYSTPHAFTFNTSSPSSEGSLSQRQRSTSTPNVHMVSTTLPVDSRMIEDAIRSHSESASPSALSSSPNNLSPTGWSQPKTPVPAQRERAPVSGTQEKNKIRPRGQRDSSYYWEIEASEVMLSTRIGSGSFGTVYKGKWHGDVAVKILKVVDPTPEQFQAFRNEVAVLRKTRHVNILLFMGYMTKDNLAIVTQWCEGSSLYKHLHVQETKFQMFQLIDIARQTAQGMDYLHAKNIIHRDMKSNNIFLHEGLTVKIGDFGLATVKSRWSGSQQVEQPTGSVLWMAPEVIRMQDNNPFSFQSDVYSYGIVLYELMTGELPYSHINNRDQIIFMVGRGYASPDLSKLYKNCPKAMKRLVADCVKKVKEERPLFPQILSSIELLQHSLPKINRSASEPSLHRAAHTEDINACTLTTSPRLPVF

MAP3K12 (human) = MAP3K12 (human) (UniProt Q12852); experiment: ELISA
Chain of MAP3K12 (human) (Q12852 whole entry, looked up): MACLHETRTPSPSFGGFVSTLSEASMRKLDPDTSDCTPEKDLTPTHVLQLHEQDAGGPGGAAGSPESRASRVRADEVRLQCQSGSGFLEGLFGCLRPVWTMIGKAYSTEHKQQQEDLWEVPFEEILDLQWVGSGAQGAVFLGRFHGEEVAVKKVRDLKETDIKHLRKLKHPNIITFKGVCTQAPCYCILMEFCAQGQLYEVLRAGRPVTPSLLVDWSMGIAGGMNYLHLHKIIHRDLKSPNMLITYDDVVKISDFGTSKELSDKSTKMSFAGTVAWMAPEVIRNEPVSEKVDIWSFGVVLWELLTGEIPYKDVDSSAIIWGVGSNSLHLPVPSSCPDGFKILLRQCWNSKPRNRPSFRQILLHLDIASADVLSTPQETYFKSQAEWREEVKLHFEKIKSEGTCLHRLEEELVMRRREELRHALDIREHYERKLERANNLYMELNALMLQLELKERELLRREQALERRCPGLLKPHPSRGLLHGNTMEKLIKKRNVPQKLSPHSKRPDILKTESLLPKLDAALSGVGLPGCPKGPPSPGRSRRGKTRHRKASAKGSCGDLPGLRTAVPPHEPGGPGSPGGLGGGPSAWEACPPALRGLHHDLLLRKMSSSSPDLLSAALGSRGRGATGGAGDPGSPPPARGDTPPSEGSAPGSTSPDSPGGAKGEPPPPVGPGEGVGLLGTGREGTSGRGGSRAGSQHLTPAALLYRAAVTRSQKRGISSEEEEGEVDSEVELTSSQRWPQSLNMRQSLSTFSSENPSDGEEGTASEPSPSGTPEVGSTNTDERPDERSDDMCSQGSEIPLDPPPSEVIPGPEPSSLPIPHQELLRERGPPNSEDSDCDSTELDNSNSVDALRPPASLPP

MOS (human) = MOS (human) (UniProt P00540); experiment: ELISA
MAP3K10 (human) = MAP3K10 (human) (UniProt Q02779); experiment: ELISA
MAP3K3 (human) = MAP3K3 (human) (UniProt Q99759); experiment: ELISA
BMPR1A (human) = BMPR1A (human) (UniProt P36894); experiment: ELISA
MAP3K1 (human) = MAP3K1 (human) (UniProt Q13233); experiment: ELISA
TTK (human) = TTK (human) (UniProt P33981); experiment: ELISA
Chain of TTK (human) (P33981 whole entry, looked up): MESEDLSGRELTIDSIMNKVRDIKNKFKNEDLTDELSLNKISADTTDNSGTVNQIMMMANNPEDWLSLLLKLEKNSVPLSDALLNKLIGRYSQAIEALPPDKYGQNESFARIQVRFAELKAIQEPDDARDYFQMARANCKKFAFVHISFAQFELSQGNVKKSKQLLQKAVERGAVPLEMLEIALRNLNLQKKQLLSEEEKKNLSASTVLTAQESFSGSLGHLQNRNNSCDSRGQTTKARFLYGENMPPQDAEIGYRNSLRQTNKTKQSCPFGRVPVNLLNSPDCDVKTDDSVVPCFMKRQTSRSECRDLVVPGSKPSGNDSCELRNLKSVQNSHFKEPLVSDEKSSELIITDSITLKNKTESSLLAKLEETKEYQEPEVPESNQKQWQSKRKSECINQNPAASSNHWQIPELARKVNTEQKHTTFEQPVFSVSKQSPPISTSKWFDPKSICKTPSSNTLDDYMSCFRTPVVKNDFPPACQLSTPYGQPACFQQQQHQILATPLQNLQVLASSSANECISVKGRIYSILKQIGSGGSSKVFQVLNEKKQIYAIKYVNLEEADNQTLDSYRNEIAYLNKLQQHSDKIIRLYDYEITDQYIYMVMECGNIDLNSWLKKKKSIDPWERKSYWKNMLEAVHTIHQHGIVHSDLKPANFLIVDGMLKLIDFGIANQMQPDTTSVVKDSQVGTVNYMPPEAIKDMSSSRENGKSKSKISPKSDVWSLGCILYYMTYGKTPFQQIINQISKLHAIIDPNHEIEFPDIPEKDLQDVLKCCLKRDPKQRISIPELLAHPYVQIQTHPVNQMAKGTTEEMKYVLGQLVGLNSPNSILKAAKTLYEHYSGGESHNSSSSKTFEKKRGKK

MAP2K3 (human) = MAP2K3 (human) (UniProt P46734); experiment: ELISA
MAP2K1 (human) = MAP2K1 (human) (UniProt Q02750); experiment: ELISA
MAP2K2 (human) = MAP2K2 (human) (UniProt P36507); experiment: ELISA
MAP3K9 (human) = MAP3K9 (human) (UniProt P80192); experiment: ELISA
MAP3K4 (human) = MAP3K4 (human) (UniProt Q9Y6R4); experiment: ELISA
MAP2K7 (human) = MAP2K7 (human) (UniProt O14733); experiment: ELISA
MAP2K4 (human) = MAP2K4 (human) (UniProt P45985); experiment: ELISA
STK11 (human) = STK11 (human) (UniProt Q15831); experiment: ELISA
MAP2K5 (human) = MAP2K5 (human) (UniProt Q13163); experiment: ELISA
Chain of MAP2K5 (human) (Q13163 whole entry, looked up): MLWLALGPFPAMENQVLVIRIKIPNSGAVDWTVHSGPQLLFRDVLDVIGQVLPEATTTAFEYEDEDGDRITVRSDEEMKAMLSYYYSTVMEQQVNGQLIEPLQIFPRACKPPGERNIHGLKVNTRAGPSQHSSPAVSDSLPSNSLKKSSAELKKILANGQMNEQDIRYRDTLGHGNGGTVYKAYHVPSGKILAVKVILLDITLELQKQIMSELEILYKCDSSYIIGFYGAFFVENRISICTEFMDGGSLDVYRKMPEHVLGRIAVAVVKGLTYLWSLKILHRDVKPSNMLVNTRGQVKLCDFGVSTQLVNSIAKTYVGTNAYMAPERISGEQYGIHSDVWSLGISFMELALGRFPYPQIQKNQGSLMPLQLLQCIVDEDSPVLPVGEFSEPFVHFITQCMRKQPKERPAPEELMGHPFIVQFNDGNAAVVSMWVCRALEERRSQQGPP

MAP3K8 (human) = MAP3K8 (human) (UniProt P41279); experiment: ELISA
PLK4 (human) = PLK4 (human) (UniProt O00444); experiment: ELISA
MAP2K6 (human) = MAP2K6 (human) (UniProt P52564); experiment: ELISA
Chain of MAP2K6 (human) (P52564 whole entry, looked up): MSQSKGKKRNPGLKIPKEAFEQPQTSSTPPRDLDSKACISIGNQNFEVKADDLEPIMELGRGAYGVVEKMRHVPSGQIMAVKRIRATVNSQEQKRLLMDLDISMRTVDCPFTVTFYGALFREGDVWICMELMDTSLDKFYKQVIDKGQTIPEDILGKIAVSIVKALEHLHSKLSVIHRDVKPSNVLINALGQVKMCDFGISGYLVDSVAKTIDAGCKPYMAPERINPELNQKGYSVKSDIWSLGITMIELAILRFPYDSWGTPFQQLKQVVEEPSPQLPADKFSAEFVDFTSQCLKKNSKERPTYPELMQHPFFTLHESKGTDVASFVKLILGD

WEE1 (human) = WEE1 (human) (UniProt P30291); experiment: ELISA
Chain of WEE1 (human) (P30291 whole entry, looked up): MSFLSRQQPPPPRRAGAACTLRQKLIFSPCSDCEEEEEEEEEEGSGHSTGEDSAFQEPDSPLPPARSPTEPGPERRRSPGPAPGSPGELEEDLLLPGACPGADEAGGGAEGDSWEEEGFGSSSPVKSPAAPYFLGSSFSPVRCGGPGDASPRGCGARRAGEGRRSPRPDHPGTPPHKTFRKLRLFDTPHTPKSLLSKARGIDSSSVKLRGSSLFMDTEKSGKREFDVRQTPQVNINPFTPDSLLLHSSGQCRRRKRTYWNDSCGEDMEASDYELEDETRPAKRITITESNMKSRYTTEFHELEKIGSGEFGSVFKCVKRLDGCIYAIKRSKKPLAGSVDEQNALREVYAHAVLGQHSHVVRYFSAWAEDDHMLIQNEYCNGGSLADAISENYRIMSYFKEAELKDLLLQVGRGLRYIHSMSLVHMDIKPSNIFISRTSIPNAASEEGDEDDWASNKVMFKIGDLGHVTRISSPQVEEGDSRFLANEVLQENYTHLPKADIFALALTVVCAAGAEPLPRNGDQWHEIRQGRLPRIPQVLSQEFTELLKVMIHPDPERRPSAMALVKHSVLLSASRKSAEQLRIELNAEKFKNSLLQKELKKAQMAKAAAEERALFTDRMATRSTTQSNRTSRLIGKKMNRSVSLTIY

MAP3K5 (human) = MAP3K5 (human) (UniProt Q99683); experiment: ELISA
MAP3K11 (human) = MAP3K11 (human) (UniProt Q16584); experiment: ELISA
LIMK1 (human) = LIMK1 (human) (UniProt P53667); experiment: ELISA
BRAF (human) = BRAF (human) (UniProt P15056); experiment: ELISA

- inhibition (JAK2 JH1 JH2 (human); compound 0.02 µM): 4.8%
- inhibition (JAK2 JH1 JH2 (human); compound 0.2 µM): 11.4%
- inhibition (EPHA6 (human); compound 0.02 µM): 3.8%
- inhibition (EPHA6 (human); compound 0.2 µM): 22.3%
- inhibition (KIT (human); compound 0.2 µM): 83%
- inhibition (CDC7 (human); compound 0.02 µM): -1.5%
- inhibition (CDC7 (human); compound 0.2 µM): -3.3%
- inhibition (RPS6KB2 (human); compound 0.02 µM): 4.3%
- inhibition (RPS6KB2 (human); compound 0.2 µM): 6.7%
- inhibition (CAMK2D (human); compound 0.02 µM): 4.9%
- inhibition (CAMK2D (human); compound 0.2 µM): 4.6%
- inhibition (PIM2 (human); compound 0.02 µM): 2.7%
- inhibition (PIM2 (human); compound 0.2 µM): 6.8%
- inhibition (JAK3 JH1 JH2 (human); compound 0.02 µM): 4.1%
- inhibition (JAK3 JH1 JH2 (human); compound 0.2 µM): 7.7%
- inhibition (CAMK1 (human); compound 0.02 µM): -2.3%
- inhibition (CAMK1 (human); compound 0.2 µM): 1.4%
- inhibition (MAP3K2 (human); compound 0.02 µM): -4%
- inhibition (MAP3K2 (human); compound 0.2 µM): 12%
- inhibition (RAF1 (human); compound 0.02 µM): 22.1%
- inhibition (RAF1 (human); compound 0.2 µM): 77.8%
- inhibition (MAP3K12 (human); compound 0.02 µM): 8.5%
- inhibition (MAP3K12 (human); compound 0.2 µM): 25%
- inhibition (MOS (human); compound 0.02 µM): -6.8%
- inhibition (MOS (human); compound 0.2 µM): 5%
- inhibition (MAP3K10 (human); compound 0.02 µM): 8.1%
- inhibition (MAP3K10 (human); compound 0.2 µM): 17.3%
- inhibition (MAP3K3 (human); compound 0.02 µM): 4.7%
- inhibition (MAP3K3 (human); compound 0.2 µM): 39.5%
- inhibition (BMPR1A (human); compound 0.02 µM): 0.4%
- inhibition (BMPR1A (human); compound 0.2 µM): 6.5%
- inhibition (MAP3K1 (human); compound 0.02 µM): -1%
- inhibition (MAP3K1 (human); compound 0.2 µM): 3.7%
- inhibition (TTK (human); compound 0.02 µM): -8.3%
- inhibition (TTK (human); compound 0.2 µM): 2.4%
- inhibition (MAP2K3 (human); compound 0.02 µM): -3.4%
- inhibition (MAP2K3 (human); compound 0.2 µM): 5.5%
- inhibition (MAP2K1 (human); compound 0.02 µM): -3.2%
- inhibition (MAP2K1 (human); compound 0.2 µM): -5.7%
- inhibition (MAP2K2 (human); compound 0.02 µM): -7.4%
- inhibition (MAP2K2 (human); compound 0.2 µM): -4%
- inhibition (MAP3K9 (human); compound 0.02 µM): 28.1%
- inhibition (MAP3K9 (human); compound 0.2 µM): 74.8%
- inhibition (MAP3K4 (human); compound 0.02 µM): -1.5%
- inhibition (MAP3K4 (human); compound 0.2 µM): 3%
- inhibition (MAP2K7 (human); compound 0.02 µM): 3.2%
- inhibition (MAP2K7 (human); compound 0.2 µM): 0.2%
- inhibition (MAP2K4 (human); compound 0.02 µM): 8.7%
- inhibition (MAP2K4 (human); compound 0.2 µM): 9.5%
- inhibition (STK11 (human); compound 0.02 µM): 0.6%
- inhibition (MAP2K5 (human); compound 0.02 µM): -16.9%
- inhibition (MAP2K5 (human); compound 0.2 µM): 0%
- inhibition (MAP3K8 (human); compound 0.02 µM): -2.6%
- inhibition (MAP3K8 (human); compound 0.2 µM): -1.1%
- inhibition (PLK4 (human); compound 0.02 µM): 8.8%
- inhibition (PLK4 (human); compound 0.2 µM): 22.3%
- inhibition (MAP2K6 (human); compound 0.02 µM): 7.1%
- inhibition (MAP2K6 (human); compound 0.2 µM): 24.5%
- inhibition (WEE1 (human); compound 0.02 µM): -3.7%
- inhibition (WEE1 (human); compound 0.2 µM): -3.5%
- inhibition (MAP3K5 (human); compound 0.02 µM): 1.9%
- inhibition (MAP3K5 (human); compound 0.2 µM): 8.3%
Structure (SMILES): Cc1ccc(Nc2nccc(N(C)c3ccc4c(C)n(C)nc4c3)n2)cc1S(N)(=O)=O

- inhibition (JAK2 JH1 JH2 (human); compound 0.2 µM): 36.5%
- inhibition (JAK2 JH1 JH2 (human); compound 4.0 µM): 94.6%
- inhibition (EPHA6 (human); compound 0.2 µM): 43.4%
- inhibition (EPHA6 (human); compound 4.0 µM): 92.7%
- inhibition (KIT (human); compound 0.2 µM): 76.7%
- inhibition (KIT (human); compound 4.0 µM): 100%
- inhibition (CDC7 (human); compound 0.2 µM): 0.9%
- inhibition (CDC7 (human); compound 4.0 µM): 4.9%
- inhibition (RPS6KB2 (human); compound 0.2 µM): 15.7%
- inhibition (RPS6KB2 (human); compound 4.0 µM): 50%
- inhibition (CAMK2D (human); compound 0.2 µM): 88.8%
- inhibition (CAMK2D (human); compound 4.0 µM): 100%
- inhibition (PIM2 (human); compound 0.2 µM): 2.5%
- inhibition (PIM2 (human); compound 4.0 µM): 12.1%
- inhibition (JAK3 JH1 JH2 (human); compound 0.2 µM): 37.5%
- inhibition (JAK3 JH1 JH2 (human); compound 4.0 µM): 96%
- inhibition (CAMK1 (human); compound 0.2 µM): 7.3%
- inhibition (CAMK1 (human); compound 4.0 µM): 61.2%
- inhibition (MAP3K2 (human); compound 0.2 µM): 52.1%
- inhibition (MAP3K2 (human); compound 4.0 µM): 95.7%
- inhibition (RAF1 (human); compound 0.2 µM): -61.4%
- inhibition (RAF1 (human); compound 4.0 µM): -88.1%
- inhibition (MAP3K12 (human); compound 0.2 µM): 59.5%
- inhibition (MAP3K12 (human); compound 4.0 µM): 96.5%
- inhibition (MAP3K11 (human); compound 0.2 µM): 30.9%
- inhibition (MAP3K11 (human); compound 4.0 µM): 89.4%
- inhibition (MOS (human); compound 0.2 µM): 2.5%
- inhibition (MOS (human); compound 4.0 µM): 29.9%
- inhibition (MAP3K10 (human); compound 0.2 µM): 1.2%
- inhibition (MAP3K10 (human); compound 4.0 µM): 11%
- inhibition (MAP3K3 (human); compound 0.2 µM): 56.3%
- inhibition (MAP3K3 (human); compound 4.0 µM): 95.5%
- inhibition (BMPR1A (human); compound 0.2 µM): -3.8%
- inhibition (BMPR1A (human); compound 4.0 µM): -7.3%
- inhibition (MAP3K1 (human); compound 0.2 µM): 15.9%
- inhibition (MAP3K1 (human); compound 4.0 µM): -29.8%
- inhibition (TTK (human); compound 0.2 µM): 11.5%
- inhibition (TTK (human); compound 4.0 µM): 89.7%
- inhibition (MAP2K3 (human); compound 0.2 µM): -2%
- inhibition (MAP2K1 (human); compound 0.2 µM): 73.2%
- inhibition (LIMK1 (human); compound 0.2 µM): -0.7%
- inhibition (LIMK1 (human); compound 4.0 µM): 31.7%
- inhibition (MAP2K2 (human); compound 0.2 µM): 70.1%
- inhibition (MAP2K2 (human); compound 4.0 µM): 99%
- inhibition (BRAF (human); compound 0.2 µM): -51%
- inhibition (BRAF (human); compound 4.0 µM): -60.8%
- inhibition (MAP3K4 (human); compound 0.2 µM): -4.9%
- inhibition (MAP3K4 (human); compound 4.0 µM): 17.5%
- inhibition (MAP2K7 (human); compound 0.2 µM): 2.2%
- inhibition (MAP2K7 (human); compound 4.0 µM): -3.6%
- inhibition (MAP2K4 (human); compound 0.2 µM): 2.8%
- inhibition (MAP2K4 (human); compound 4.0 µM): 51.9%
- inhibition (STK11 (human); compound 0.2 µM): 4.3%
- inhibition (STK11 (human); compound 4.0 µM): 28.1%
- inhibition (MAP2K5 (human); compound 0.2 µM): 32.7%
- inhibition (MAP2K5 (human); compound 4.0 µM): 91.8%
- inhibition (MAP3K8 (human); compound 0.2 µM): -5.3%
- inhibition (MAP3K8 (human); compound 4.0 µM): -9.2%
- inhibition (PLK4 (human); compound 0.2 µM): 30.3%
- inhibition (PLK4 (human); compound 4.0 µM): 82.7%
- inhibition (MAP2K6 (human); compound 0.2 µM): 21.1%
- inhibition (MAP2K6 (human); compound 4.0 µM): 87.3%
- inhibition (WEE1 (human); compound 0.2 µM): 10%
- inhibition (WEE1 (human); compound 4.0 µM): 65.3%
- inhibition (MAP3K5 (human); compound 0.2 µM): -0.6%
- inhibition (MAP3K5 (human); compound 4.0 µM): 60.6%
Structure (SMILES): CCN(CC)CCNC(=O)c1c(C)[nH]c(/C=C2\C(=O)Nc3ccc(F)cc32)c1C
